# In paper PMC9658223, “New, Eco-Friendly Method for Synthesis of 3-Chlorophenyl and 1,1′-Biphenyl Piperazinylhexyl Trazodone Analogues with Dual 5-HT1A/5-HT7 Affinity and Its Antidepressant-like Activity” (Molecules, 2022):
# Counter-ions that a name gives are not always drawn.
# Assays:
# [1] = target: T1, 5-HT7 receptor (Homo sapiens, UniProt P34969); test: LANCE Ultra cAMP assay, inhibition of 5-CT-induced cAMP in HEK-293 cells overexpressing 5-HT7bR; type: cell-based
# T1 construct: gene HTR7; 5-HT7bR
# Description: LANCE Ultra cAMP assay, inhibition of 5-CT-induced cAMP in HEK-293 cells overexpressing 5-HT7bR on 5-HT7 receptor | Both behaved as 5-HT7R antagonists | Both behaved as 5-HT7R antagonists, while 7b·HCl additionally acted as a 5-HT1AR antagonist in a cAMP assay.
# [2] = target: CYP3A4 (Homo sapiens, UniProt P08684); test: CYP3A4 P450-Glo luminescence assay (Promega), single concentration […]; type: biochemical
# [3] = target: T2, 5-HT1A receptor (Homo sapiens, UniProt P08908); test: LANCE Ultra cAMP functional antagonist assay in HEK293 cells; type: cell-based
# T2 construct: gene HTR1A
# T2 sequence (P08908 1-422): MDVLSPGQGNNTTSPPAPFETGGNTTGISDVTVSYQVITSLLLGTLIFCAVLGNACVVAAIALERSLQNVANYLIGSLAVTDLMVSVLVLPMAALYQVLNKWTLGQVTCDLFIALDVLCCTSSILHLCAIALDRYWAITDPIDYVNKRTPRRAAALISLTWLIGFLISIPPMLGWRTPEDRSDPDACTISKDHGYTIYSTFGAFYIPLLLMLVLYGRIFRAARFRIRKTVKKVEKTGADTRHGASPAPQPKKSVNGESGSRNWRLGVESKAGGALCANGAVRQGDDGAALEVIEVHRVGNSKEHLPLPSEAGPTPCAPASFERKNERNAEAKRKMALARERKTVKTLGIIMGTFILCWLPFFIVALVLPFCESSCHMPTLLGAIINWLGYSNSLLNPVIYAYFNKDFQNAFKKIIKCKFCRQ
# Description: LANCE Ultra cAMP functional antagonist assay in HEK293 cells on 5-HT1A receptor | 7b·HCl additionally acted as a 5-HT1AR antagonist in a cAMP assay
# T1 sequence (P34969 1-432): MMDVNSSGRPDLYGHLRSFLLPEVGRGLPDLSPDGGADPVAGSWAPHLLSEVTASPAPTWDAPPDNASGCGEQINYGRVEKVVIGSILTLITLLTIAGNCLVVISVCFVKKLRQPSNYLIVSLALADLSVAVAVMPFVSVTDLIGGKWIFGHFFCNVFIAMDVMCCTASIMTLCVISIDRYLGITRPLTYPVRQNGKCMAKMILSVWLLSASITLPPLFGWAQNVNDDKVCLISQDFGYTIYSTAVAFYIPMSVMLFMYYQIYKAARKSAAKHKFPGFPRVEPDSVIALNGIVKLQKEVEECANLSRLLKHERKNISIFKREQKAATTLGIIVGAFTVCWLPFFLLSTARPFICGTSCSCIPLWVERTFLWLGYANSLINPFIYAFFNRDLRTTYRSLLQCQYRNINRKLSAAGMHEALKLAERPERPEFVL
# Sequence of CYP3A4 (P08684 2-503): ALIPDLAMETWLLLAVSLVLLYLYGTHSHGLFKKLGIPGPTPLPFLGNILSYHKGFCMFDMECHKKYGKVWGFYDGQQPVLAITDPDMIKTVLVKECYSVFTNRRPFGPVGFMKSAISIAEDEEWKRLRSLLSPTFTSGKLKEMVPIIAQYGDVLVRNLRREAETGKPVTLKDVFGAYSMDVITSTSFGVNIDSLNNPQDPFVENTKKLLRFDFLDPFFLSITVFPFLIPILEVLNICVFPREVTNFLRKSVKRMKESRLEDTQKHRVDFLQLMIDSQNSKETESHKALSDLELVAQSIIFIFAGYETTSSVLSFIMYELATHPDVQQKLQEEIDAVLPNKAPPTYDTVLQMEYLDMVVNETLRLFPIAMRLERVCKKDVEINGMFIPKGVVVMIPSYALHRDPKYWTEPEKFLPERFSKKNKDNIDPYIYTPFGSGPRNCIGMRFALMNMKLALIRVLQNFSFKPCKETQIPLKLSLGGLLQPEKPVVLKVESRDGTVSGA
SMILES,Kb [1] [nM],inhibition at 10 µM [2] [%],Kb [3] [nM]
"O=c1n(CCCCCCN2CCN(c3cccc(Cl)c3)CC2)nc2ccccn12 [7a·HCl, 2-(6-(4-(3-chlorophenyl)piperazin-1-yl)hexyl)-[1,2,4]triazolo[4,3-a]pyridin-3(2H)-one hydrochloride]",87,–,–
"O=c1n(CCCCCCN2CCN(c3ccccc3-c3ccccc3)CC2)nc2ccccn12 [7b·HCl, 2-(6-(4-([1,1′-biphenyl]-2-yl)piperazin-1-yl)hexyl)-[1,2,4]triazolo[4,3-a]pyridin-3(2H)-one hydrochloride]",18,35,12
